Reference: article PMC7501227, “Flatfishes colonised freshwater environments by acquisition of various DHA biosynthetic pathways” (Communications Biology, 2020)

Tests used:
Fads2a (H. mentalis) = target: T1, Fads2a (H. mentalis) (Hypoclinemus mentalis, UniProt A0A7G1GDA4); experiment: yeast expression, GC of FAMEs, % conversion; assay type: cell-based; conditions: Δ6 desaturation; yeast culture 48 h, 30 °C
T1 construct: full ORF in pYES2, 442 residues, expressed in S. cerevisiae INVSc1

Fads2 (A. finis) [1] = target: T2, Fads2 (A. finis) (Apionichthys finis, UniProt A0A7G1GDB3); conditions: Δ6 desaturation; yeast culture 48 h, 30 °C
Fads2 (A. finis) [2] = target: T2, Fads2 (A. finis); experiment: yeast co-expression with zebrafish Elovl2, GC of FAMEs; assay type: cell-based; parameters: full ORF in pYES2, expressed in S. cerevisiae INVSc1; conditions: Δ6 desaturation; 24:5n-3 formed in the yeast from 22:5n-3 by zebrafish Elovl2; normalised to 18:3n-3
Elovl5 (G. melas) = target: T3, Elovl5 (G. melas) (Gymnachirus melas, UniProt A0A7G1GDB9); experiment: yeast expression, GC of FAMEs, % conversion; assay type: cell-based; conditions: elongation of C18 substrate; yeast culture 48 h, 30 °C
T3 construct: full ORF in pYES2, expressed in S. cerevisiae INVSc1
T3 sequence (A0A7G1GDB9 1-294): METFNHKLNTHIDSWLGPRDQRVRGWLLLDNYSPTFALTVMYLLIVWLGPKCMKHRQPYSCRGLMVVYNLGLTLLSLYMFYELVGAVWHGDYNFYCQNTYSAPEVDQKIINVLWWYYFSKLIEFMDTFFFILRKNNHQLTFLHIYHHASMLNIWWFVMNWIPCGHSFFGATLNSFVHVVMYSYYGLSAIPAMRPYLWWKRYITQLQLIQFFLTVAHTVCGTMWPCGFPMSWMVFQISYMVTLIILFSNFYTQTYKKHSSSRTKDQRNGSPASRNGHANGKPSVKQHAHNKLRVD

Elovl5 (T. maculatus) = target: T4, Elovl5 (T. maculatus) (Trinectes maculatus, UniProt A0A7G1GDF5); experiment: yeast expression, GC of FAMEs, % conversion; assay type: cell-based; conditions: elongation of C18 substrate; yeast culture 48 h, 30 °C
T4 construct: full ORF in pYES2, expressed in S. cerevisiae INVSc1
T4 sequence (A0A7G1GDF5 1-294): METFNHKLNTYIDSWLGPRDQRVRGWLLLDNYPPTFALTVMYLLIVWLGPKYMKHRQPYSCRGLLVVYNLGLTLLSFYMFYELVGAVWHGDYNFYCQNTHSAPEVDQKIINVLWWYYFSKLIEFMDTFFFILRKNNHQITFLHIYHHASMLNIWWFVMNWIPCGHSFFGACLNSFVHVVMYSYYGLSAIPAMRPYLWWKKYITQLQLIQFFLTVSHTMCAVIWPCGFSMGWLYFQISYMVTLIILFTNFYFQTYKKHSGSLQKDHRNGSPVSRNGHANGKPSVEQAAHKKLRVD

Elovl5 (H. mentalis) = target: T5, Elovl5 (H. mentalis) (Hypoclinemus mentalis, UniProt A0A7G1GDF4); experiment: yeast expression, GC of FAMEs, % conversion; assay type: cell-based; conditions: elongation of C18 substrate; yeast culture 48 h, 30 °C
T5 construct: full ORF in pYES2, expressed in S. cerevisiae INVSc1
T5 sequence (A0A7G1GDF4 1-294): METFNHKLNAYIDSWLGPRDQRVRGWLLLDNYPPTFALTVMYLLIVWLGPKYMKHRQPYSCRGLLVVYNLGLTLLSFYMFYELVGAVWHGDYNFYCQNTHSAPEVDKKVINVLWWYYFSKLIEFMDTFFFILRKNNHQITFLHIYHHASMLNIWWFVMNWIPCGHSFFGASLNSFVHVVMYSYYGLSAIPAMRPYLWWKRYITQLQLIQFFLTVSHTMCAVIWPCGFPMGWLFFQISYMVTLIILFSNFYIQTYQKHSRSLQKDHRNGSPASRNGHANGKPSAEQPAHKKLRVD

T2 sequence (A0A7G1GDB3 entry or part of it): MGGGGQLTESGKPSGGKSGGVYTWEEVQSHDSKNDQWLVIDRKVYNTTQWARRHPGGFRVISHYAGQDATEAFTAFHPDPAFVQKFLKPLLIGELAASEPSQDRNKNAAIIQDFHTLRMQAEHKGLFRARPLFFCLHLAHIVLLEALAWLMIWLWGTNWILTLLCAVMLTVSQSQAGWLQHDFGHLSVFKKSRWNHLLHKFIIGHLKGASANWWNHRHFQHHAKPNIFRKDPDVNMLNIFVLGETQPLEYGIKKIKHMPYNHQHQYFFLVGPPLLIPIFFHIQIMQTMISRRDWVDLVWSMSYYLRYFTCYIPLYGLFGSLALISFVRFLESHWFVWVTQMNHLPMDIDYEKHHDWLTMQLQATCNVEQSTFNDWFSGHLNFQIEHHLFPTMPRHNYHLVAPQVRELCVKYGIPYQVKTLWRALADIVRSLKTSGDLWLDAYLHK
T1 sequence (A0A7G1GDA4 entry or part of it): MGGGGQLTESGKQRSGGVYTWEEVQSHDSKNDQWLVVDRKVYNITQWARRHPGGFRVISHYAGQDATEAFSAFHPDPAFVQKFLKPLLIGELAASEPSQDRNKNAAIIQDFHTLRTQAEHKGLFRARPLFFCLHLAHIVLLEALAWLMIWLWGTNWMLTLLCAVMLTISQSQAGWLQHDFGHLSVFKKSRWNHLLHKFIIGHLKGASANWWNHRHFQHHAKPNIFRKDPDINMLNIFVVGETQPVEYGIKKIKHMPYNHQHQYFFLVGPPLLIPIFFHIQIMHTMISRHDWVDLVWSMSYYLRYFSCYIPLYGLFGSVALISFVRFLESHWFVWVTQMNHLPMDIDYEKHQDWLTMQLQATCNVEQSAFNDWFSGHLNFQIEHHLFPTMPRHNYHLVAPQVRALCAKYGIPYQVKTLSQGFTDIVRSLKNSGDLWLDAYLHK

Compound: CC/C=C\C/C=C\C/C=C\CCCCCCCC(=O)O [α-linolenic acid]
- yeast expression, GC of FAMEs, % conversion (Fads2a (H. mentalis)): The two Fads2, namely Fads2a and Fads2b, showed distinct activities
- yeast expression, GC of FAMEs, % conversion (Fads2 (A. finis) [1]): The Fads2 isolated from A. finis showed

Compound: CC/C=C\C/C=C\C/C=C\C/C=C\C/C=C\CCCCCCCC(=O)O [24:5n − 3]
- yeast co-expression with zebrafish Elovl2, GC of FAMEs (Fads2 (A. finis) [2]): desaturation at the highest efficiency among the four species

Compound: CC/C=C\C/C=C\C/C=C\C/C=C\CCCCC(=O)O [18:4n − 3]
- yeast expression, GC of FAMEs, % conversion (Elovl5 (G. melas)): The G. melas Elovl5 exhibited activity towards C18 to C22 substrates
- yeast expression, GC of FAMEs, % conversion (Elovl5 (T. maculatus)): The Elovl5 showed elongase activities towards C18 to C22 substrates
- yeast expression, GC of FAMEs, % conversion (Elovl5 (H. mentalis)): The Elovl5 performed elongations of C18 to C22 substrates
